Several values for one entry are separate records, joined by “and”; a condition that tells them apart may be missing. Equal entries are not always repeated. Where two headings read alike, the source gives them in different places.
Columns and labels:
VIM-1 [1] = target: T1, VIM-1 (Pseudomonas aeruginosa, UniProt A0A0F7KYQ8); assay: IC50 of beta-lactamase inhibition (nitrocefin hydrolysis); format: biochemical
SHV-12 [2] = target: T2, SHV-12 (Klebsiella pneumoniae, UniProt P0AD64, E235K/G234S/L31Q); assay: as above; format: biochemical; conditions: read-out: IC50 (nM) of drug
OXA-48 [3] = target: T3, OXA-48 (Klebsiella pneumoniae, UniProt Q6XEC0); assay: as above; format: biochemical, Enterobacteriaceae; conditions: read-out: IC50 (nM) of drug
CTX-M-14 = CTX-M-14 (Escherichia coli, UniProt Q9L5C7); assay: as above; format: biochemical; conditions: read-out: IC50 (nM) of drug
IMP-1 [4] = target: T4, IMP-1 (Serratia marcescens, UniProt P52699); assay: IC50 of beta-lactamase inhibition (imipenem hydrolysis); format: biochemical
KPC-2 [5] = target: T5, KPC-2 (Klebsiella pneumoniae, UniProt Q9F663); assay: IC50 of beta-lactamase inhibition (nitrocefin hydrolysis); format: biochemical; conditions: KPC-2, class A; substrate nitrocefin; 10 min preincubation at 37°C; read-out: IC50 (nM) of drug
P99 [6] = target: T6, P99 (Enterobacter cloacae, UniProt P05364); assay: as above; format: biochemical; conditions: P99, class C; substrate nitrocefin; 10 min preincubation at 37°C; read-out: IC50 (nM) of drug
Experimental: (§1) […]; Initial rates of reaction were calculated and exported to Prism software to calculate IC50 values using the “dose-response—inhibition, variable slope (four parameters)” equation. Ki values were calculated by the method of Waley ([31]). This method was previously used to calculate Ki values for boronic fast-on–fast-off BLIs.

CTX-M-15 [7] = target: T7, CTX-M-15 (Escherichia coli, UniProt Q9EXV5); assay: as above; format: biochemical; conditions: read-out: IC50 (nM) of drug
Experimental: as §1

NDM-1 [8] = target: T8, NDM-1 (Klebsiella pneumoniae, UniProt C7C422); assay: biochemical
OXA-23 [9] = target: T9, OXA-23 (Acinetobacter baumannii, UniProt Q9L4P2); assay: IC50 of beta-lactamase inhibition (nitrocefin hydrolysis); format: biochemical; conditions: read-out: IC50 (nM) of drug
P99 [10] = target: T6, P99; assay: Stoichiometry of beta-lactamase inhibition; format: biochemical; conditions: minimal BLI/enzyme ratio reducing enzyme activity by at least 90%
Experimental: (§2) […]. Stoichiometry of inhibition was determined as a minimal BLI/enzyme ratio reducing enzyme activity by at least 90%.

OXA-23 [11] = target: T9, OXA-23; assay: Stoichiometry of beta-lactamase inhibition; format: biochemical; conditions: minimal BLI/enzyme ratio reducing enzyme activity by at least 90%
Experimental: as §2

CTX-M-15 [12] = target: T7, CTX-M-15; assay: Stoichiometry of beta-lactamase inhibition; format: biochemical; conditions: minimal BLI/enzyme ratio reducing enzyme activity by at least 90%
Experimental: as §2

OXA-58 [13] = target: T10, OXA-58 (Acinetobacter baumannii, UniProt Q2TR58); assay: Stoichiometry of beta-lactamase inhibition; format: biochemical; conditions: minimal BLI/enzyme ratio reducing enzyme activity by at least 90%
Experimental: as §2

OXA-24 [14] = target: T11, OXA-24 (Acinetobacter baumannii, UniProt Q8RLA6); assay: Stoichiometry of beta-lactamase inhibition; format: biochemical; conditions: minimal BLI/enzyme ratio reducing enzyme activity by at least 90%
Experimental: as §2

KPC-2 [15] = target: T5, KPC-2; assay: Stoichiometry of beta-lactamase inhibition; format: biochemical; conditions: minimal BLI/enzyme ratio reducing enzyme activity by at least 90%
Experimental: as §2

OXA-48 [16] = target: T3, OXA-48; assay: Stoichiometry of beta-lactamase inhibition; format: biochemical; conditions: minimal BLI/enzyme ratio reducing enzyme activity by at least 90%
Experimental: as §2

TEM-43 = TEM-43 (Escherichia coli, UniProt P62593, E102K/M180T/R162H, species not given); assay: Stoichiometry of beta-lactamase inhibition; format: biochemical; conditions: minimal BLI/enzyme ratio reducing enzyme activity by at least 90%
Experimental: (§3) Purified enzyme at 1 μM concentration in buffer A was mixed with BLI at a BLI/enzyme ratio varying from 128 to 0.0625. […]. Stoichiometry of inhibition was determined as a minimal BLI/enzyme ratio reducing enzyme activity by at least 90%.

SHV-12 [17] = target: T2, SHV-12; assay: Stoichiometry of beta-lactamase inhibition; format: biochemical; conditions: minimal BLI/enzyme ratio reducing enzyme activity by at least 90%
Experimental: as §3

KPC-3 [18] = target: T12, KPC-3 (Klebsiella pneumoniae, UniProt Q9F663, H272Y); assay: Stoichiometry of beta-lactamase inhibition; format: biochemical; conditions: minimal BLI/enzyme ratio reducing enzyme activity by at least 90%
Experimental: as §3

BKC-1 = BKC-1 (Klebsiella pneumoniae, UniProt A0A0F6QEY8); assay: Stoichiometry of beta-lactamase inhibition; format: biochemical; conditions: minimal BLI/enzyme ratio reducing enzyme activity by at least 90%
Experimental: as §3

SME-2 [19] = target: T13, SME-2 (Serratia marcescens, UniProt P52682, V207Q); assay: Stoichiometry of beta-lactamase inhibition; format: biochemical; conditions: minimal BLI/enzyme ratio reducing enzyme activity by at least 90%
Experimental: as §3

FRI-1 = FRI-1 (Enterobacter cloacae, UniProt A0A0M5L4T8); assay: Stoichiometry of beta-lactamase inhibition; format: biochemical; conditions: minimal BLI/enzyme ratio reducing enzyme activity by at least 90%
Experimental: as §3

P99 [20] = target: T6, P99; assay: koff of enzyme activity recovery, jump dilution method; format: biochemical; conditions: derived from the ratio of koff and k2/K
Experimental: (§4) Enzyme at a 1 μM concentration in buffer A was mixed with BLI at an 8-fold-higher concentration than its stoichiometry ratio (determined in preliminary stoichiometry experiments). […].

OXA-23 [21] = target: T9, OXA-23; assay: as above; format: biochemical; conditions: derived from the ratio of koff and k2/K
Experimental: as §4

CTX-M-15 [22] = target: T7, CTX-M-15; assay: as above; format: biochemical; conditions: derived from the ratio of koff and k2/K
Experimental: as §4

OXA-58 [23] = target: T10, OXA-58; assay: as above; format: biochemical; conditions: derived from the ratio of koff and k2/K
Experimental: as §4

OXA-24 [24] = target: T11, OXA-24; assay: as above; format: biochemical; conditions: derived from the ratio of koff and k2/K
Experimental: as §4

KPC-2 [25] = target: T5, KPC-2; assay: as above; format: biochemical; conditions: derived from the ratio of koff and k2/K
Experimental: as §4

KPC-3 [26] = target: T12, KPC-3; assay: as above; format: biochemical; conditions: derived from the ratio of koff and k2/K
Experimental: as §4

SME-2 [27] = target: T13, SME-2; assay: as above; format: biochemical; conditions: derived from the ratio of koff and k2/K
Experimental: as §4

SHV-12 [28] = target: T2, SHV-12; assay: biochemical; conditions: derived from the ratio of koff and k2/K
[29] = test system: strain producing cloned L1 from Stenotrophomonas maltophilia; conditions: strain producing cloned L1 (B3 subclass MBL); cited from earlier work
OXA-48 [30] = target: T3, OXA-48; assay: koff of enzyme activity recovery, jump dilution method; format: biochemical, Enterobacteriaceae; conditions: derived from the ratio of koff and k2/K
Experimental: as §4

IMP-1 [31] = target: T4, IMP-1; assay: Ki of competitive MBL inhibition (method of Waley); format: biochemical
Experimental: as §1

VIM-1 [32] = target: T1, VIM-1; assay: Ki of competitive MBL inhibition (method of Waley); format: biochemical
Experimental: as §1

[33] = test system: O=C(Cc1cccs1)N[C@@H]1C(=O)N2C(C(=O)O)=C(/C=C/c3ccc([N+](=O)[O-])cc3[N+](=O)[O-])CS[C@H]12; assay: purified protein, by the assay type
VIM-1 [34] = target: T1, VIM-1
OXA-23 [35] = target: T9, OXA-23
NDM-1 [36] = target: T8, NDM-1; format: biochemical
IMP-26 = IMP-26 (Pseudomonas aeruginosa, UniProt D0V558); format: biochemical; conditions: hydrolysis by IMP-26
OXA-48 [37] = target: T3, OXA-48
OXA-24 [38] = target: T11, OXA-24
OXA-58 [39] = target: T10, OXA-58
KPC-2 [40] = target: T5, KPC-2; format: biochemical
IMP-1 [41] = target: T4, IMP-1
[42] = Kd values for MBLs were based on Kis

O=C(O)C[C@@H]1CC[C@H](NC(=O)Cc2cccs2)B(O)O1 [Vaborbactam, vaborbactam]
IC50 (VIM-1 [1]; IC50 (nM) of drug): > 160000 nM
IC50 (SHV-12 [2]): 56 ± 11 nM
IC50 (OXA-48 [3]): 6900 nM
IC50 (CTX-M-14): 110 ± 40 nM
IC50 (IMP-1 [4]): > 160000 nM
IC50 (KPC-2 [5]): 110 ± 30 nM
IC50 (P99 [6]): 88 ± 38 nM
IC50 (CTX-M-15 [7]): 92 ± 13 nM
IC50 (NDM-1 [8]): > 160000 nM
IC50 (OXA-23 [9]): 120000 nM

O=C(O)c1c(F)ccc2c1OB(O)[C@@H]1C[C@H]21 [QPX7728]
Stoichiometry (P99 [10]): 1
Stoichiometry (OXA-23 [11]): 2
Stoichiometry (CTX-M-15 [12]): 1
Stoichiometry (OXA-58 [13]): 1
Stoichiometry (OXA-24 [14]): 1
Stoichiometry (KPC-2 [15]): 1
Stoichiometry (OXA-48 [16]): 1
IC50 (VIM-1 [1]; read-out: IC50 (nM) of drug): 14 ± 4 nM
Stoichiometry (TEM-43): 1
Stoichiometry (SHV-12 [17]): 1
Stoichiometry (KPC-3 [18]): 1
Stoichiometry (BKC-1): 1
Stoichiometry (SME-2 [19]): 1
Stoichiometry (FRI-1): 1
IC50 (SHV-12 [2]): 1.9 ± 0.6 nM
Kd (P99 [20]): 0.53 ± 0.06 nM
Kd (OXA-23 [21]): 1.6 ± 0.2 nM
Kd (CTX-M-15 [22]): 0.11 ± 0.02 nM
Kd (OXA-58 [23]): 3.2 ± 0.3 nM
Kd (OXA-24 [24]): 0.58 ± 0.1 nM
Kd (KPC-2 [25]): 0.25 ± 0.03 nM
Kd (KPC-3 [26]): 0.31 ± 0.06 nM
Kd (SME-2 [27]): 0.15 ± 0.02 nM
Kd (SHV-12 [28]): 28 ± 4 nM
IC50 (OXA-48 [3]): 1 nM and 1.1 nM
ability to reduce MICs of meropenem and ceftazidime [29]: inability
IC50 (CTX-M-14): 0.94 ± 0.2 nM
Kd (OXA-48 [30]): 0.13 ± 0.01 nM
IC50 (IMP-1 [4]): 610 ± 70 nM
IC50 (KPC-2 [5]): 2.9 ± 0.4 nM
Kd (IMP-1 [31]; [42]): 240 ± 30 nM
Ki (IMP-1 [31]; competitive, fast-on–fast-off): 240 ± 30 nM
Kd (VIM-1 [32]; [42]): 7.5 ± 2.1 nM
Ki (VIM-1 [32]; competitive, fast-on–fast-off): 7.5 ± 2.1 nM
IC50 (P99 [6]): ~22 nM and 22 nM
IC50 (CTX-M-15 [7]): 1.2 ± 0.1 nM
IC50 (OXA-23 [9]): 1 nM and 1.2 nM

(Acinetobacter baumannii)
Km [33]: 62 µM and 28 µM and 34 µM
kcat [33]: 357 s⁻¹ and 208 s⁻¹ and 518 s⁻¹
kcat/Km [33]: 5.8e+06 M⁻¹ s⁻¹ and 7.6e+06 M⁻¹ s⁻¹ and 1.5e+07 M⁻¹ s⁻¹

C[C@@H](O)[C@H]1C(=O)N2C(C(=O)O)=C(SCCN=CN)C[C@H]12 [Imipenem, imipenem]
Km (VIM-1 [34]): 13 µM
kcat (VIM-1 [34]): 15 s⁻¹
Km (OXA-23 [35]): 6.6 µM
kcat (OXA-23 [35]): 0.7 s⁻¹
Km (NDM-1 [36]): 206 µM
kcat (NDM-1 [36]): 96 s⁻¹
kcat (IMP-26): 35 s⁻¹
Km (OXA-48 [37]): 1.5 µM
kcat (OXA-48 [37]): 1.7 s⁻¹
Km (OXA-24 [38]): 1.2 µM
kcat (OXA-24 [38]): 1.9 s⁻¹
Km (OXA-58 [39]): 1.3 µM
kcat (OXA-58 [39]): 0.66 s⁻¹
Km (KPC-2 [40]): 70 µM
kcat (KPC-2 [40]): 39 s⁻¹
Km (IMP-1 [41]): 66 µM

(Escherichia coli)
Km [33]: 22 µM and 24 µM
kcat [33]: 334 s⁻¹ and 341 s⁻¹
kcat/Km [33]: 1.5e+07 M⁻¹ s⁻¹

(Klebsiella pneumoniae)
Km [33]: 29 µM
kcat [33]: 406 s⁻¹
kcat/Km [33]: 1.4e+07 M⁻¹ s⁻¹

— article PMC7269513 (Antimicrobial Agents and Chemotherapy, 2020)
